Assay results from patent US20170319562A1, “Compositions and Methods for Extended Therapy with Aminopyridines” (Acorda Therapeutics, Inc., priority 2009, published 2017).

Legend:
[1] = two formulations of IR tablets; cited from earlier work
[2] = system: patients with multiple sclerosis; assay: MS-F202EXT open-label extension study; type: in vivo, human; details: for patients classified as Extension Timed Walk Responders: cut-off Jul. 31, 2008
Procedure: (§1) Data were presented by study pair (parent and extension).
In the MS-F202EXT study, which started recruiting patients several months after the completion of the parent study, patients were required to undergo a screening visit prior to dispensing of open-label 4-aminopyridine-SR. The study began with the potential to titrate the dose upward to a maximum of 20 mg b.i.d. with titration visits at weekly intervals. A number of protocol amendments decreased the maximum dose to 15 and then to 10 mg b.i.d. and changed the planned visit intervals, but in the current amended protocol, both the dose (10 mg b.i.d.) and the interval between visits (26 weeks) has been made consistent with MS-F203EXT.
(§2) This Example considers efficacy data collected from the three ongoing, open label extension studies (MS-F202EXT, MS-F203EXT, MS-F204EXT). The primary focus was the Timed 25-Foot Walk, assessed in a manner consistent with its evaluation in the parent double-blind studies. This included the determination of response to treatment using a criterion equivalent to the Timed Walk Response criterion used in the parent studies. […] The clinical meaningfulness of this criterion was evaluated in terms of the Subject and Clinician Global Impression scores recorded during the extension studies.
(§3) In the extension studies, a “Timed Walk Extension Responder” was defined as a patient who achieved a faster walking speed on the T25FW for the majority of on-drug treatment visits during the first year of the study (Visits 1-4 for MS-F203EXT and MS-F204EXT) than the maximum walking speed previously measured for the patient during any off-drug visits in either the parent study or in the extension study.

[3] = system: patients with multiple sclerosis; assay: Pooled analysis of MS-F202, MS-F203 and MS-F204; type: in vivo, human; details: Timed-Walk Responders
Procedure: The primary efficacy variable was analyzed by comparing 4-aminopyridine-SR 10 mg b.i.d., the now FDA-approved clinical dose, to placebo with respect to the proportion of patients with consistent improvements in walking speed (Timed-Walk Responders).
A set of post-hoc analyses using a traditional definition of response based on threshold change was performed to provide additional evidence of the robustness of the primary analyses using the Timed-Walk Responder criterion. For these analyses, a patient was defined as a “% Responder” at various thresholds of response (at average increases in walking speed during the treatment period of at least 10%, 20%, etc. up to 60% from baseline). Fisher's Exact test was used to compare 4-aminopyridine to placebo for each study and for the pooled analysis.
DesignAVIethods: All patients from MS-F202, MS-F203 and MS-F204 were included in a pooled analysis. Patients with clinically definite multiple sclerosis were randomized to 4-aminopyridine-SR 10 mg bid or placebo for up to 14 weeks. The primary efficacy variable was defined as a faster walking speed on the Timed 25-Foot Walk (T25FW) for at least 3 of 4 double-blind efficacy visits compared with the maximum walking speed on any of 5 off-treatment visits, and was determined prospectively for MS-F203 and MS-F204 and retrospectively in MS-F202. The average Walking Speed (“WS”) over four baseline and four treatment visits were compared by treatment and TWR status.
All patients from MS-F202, MS-F203 and MS-F204 were included in a pooled analysis. Patients with clinically definite multiple sclerosis were randomized to 4-aminopyridine-SR 10 mg bid or placebo for up to 14 weeks. The primary efficacy variable was defined as a faster walking speed on the Timed 25-Foot Walk (T25FW) for at least 3 of 4 double-blind efficacy visits compared with the maximum walking speed on any of 5 off-treatment visits, and was determined prospectively for MS-F203 and MS-F204 and retrospectively in MS-F202.
Methods: Data for patients who received the therapeutic dose of 4-aminopyridine-SR, 10mg bid, in three randomized controlled trials (MS-F202, MS-F203, and MS-F204) were pooled (n=394) and compared to placebo (n=237). Comparative analyses were based on the percent change from baseline in WS using the timed 25-foot walk. […] The percent change in WS for the pooled populations for each double-blind visit was evaluated by time interval to account for differences in study schedules (Days 1-21, 22-49, 50-77, and 78-end of double-blind phase). The percent changes were analyzed with analysis of variance with effects for treatment group, study, and site within study.

[4] = system: patients with multiple sclerosis; assay: MS-F204EXT open-label extension study; type: in vivo, human; details: cut-off Jul. 31, 2008
Procedure: as §1
In the MS-F204EXT study, which allowed patients to enroll directly from the parent study MS-F204, open label 4-aminopyridine-SR 10 mg b.i.d. was dispensed at visit 0 (a separate screening visit was only required if the screening visit could not be combined with the Final visit for MS-F204); visit 1 was scheduled to occur two weeks after screening visit (or visit 0), visit 2 at 12 weeks after visit 1, visit 3 at 12 weeks after visit 2. The planned interval between subsequent visits was 26 weeks. Therefore, at visit 4, a patient should have been on 4-aminopyridine-SR treatment for approximately one year.
as §2, §3

[5] = system: chronically injured spinal cord of guinea pigs; details: cited from earlier work
[6] = Single 20 mg intravenous dose, volume of distribution; type: in vivo; details: plasma
Description: Measurable levels are present in the saliva.

[7] = Bioavailability and pharmacokinetics in healthy volunteers; details: 10 mg oral solution
[8] = system: normal adult myelinated axons; details: cited from earlier work
[9] = oral, non-sustained release; cited from earlier work
[10] = Pharmacokinetics after i.v. and p.o. 4-aminopyridine (2 mg/kg) in rats; details: single p.o. 2 mg/kg
Description: Distribution: The volume of distribution at steady state (Vdss) in rats has been reported to approximate total body volume (not adjusted for bioavailability).

[11] = parent-study treated Timed Walk Non-Responders
[12] = parent-study treated Timed Walk Responders
[13] = placebo-treated in parent study

## Nc1ccncc1 [4-aminopyridine]
[1]
  absolute bioavailability: 95%
[2]; all patients
  patients classified as Extension Timed Walk Responders: 15.7%
[2]; double-blind Non-Responders, year 1
  Extension Timed Walk Response rate within year: 11.1%
[2]; double-blind Non-Responders, year 2
  Extension Timed Walk Response rate within year: 5.2%
[2]; double-blind Non-Responders, year 3
  Extension Timed Walk Response rate within year: 6.1%
[2]; double-blind Responders, year 1
  Extension Timed Walk Response rate within year: 25.6%
[2]; double-blind Responders, year 2
  Extension Timed Walk Response rate within year: 23.1%
[2]; double-blind Responders, year 3
  Extension Timed Walk Response rate within year: 22.2%
[2]; [11]
  patients classified as Extension Timed Walk Responders: 9.5%
[2]; [12]
  patients classified as Extension Timed Walk Responders: 25.6%
[2]; placebo treated in parent study, year 1
  Extension Timed Walk Response rate within year: 17.9%
[2]; placebo treated in parent study, year 2
  Extension Timed Walk Response rate within year: 4.6%
[2]; placebo treated in parent study, year 3
  Extension Timed Walk Response rate within year: 5.3%
[2]; [13]
  patients classified as Extension Timed Walk Responders: 14.3%
[3]; average improvement
  double-blind average percent change from baseline in walking speed: 24%
[3]; dose interval 9-10 hrs
  average increase in walking speed by time from last dose: 25%
[3]; dose interval 10-11 hrs
  average increase in walking speed by time from last dose: 24%
[3]; dose interval 11-12 hrs
  average increase in walking speed by time from last dose: 20%
[4]; all patients
  patients classified as Extension Timed Walk Responders: 49.3%
[4]; [11]
  patients classified as Extension Timed Walk Responders: 30.0%
[4]; [12]
  patients classified as Extension Timed Walk Responders: 71.4%
[4]; [13]
  patients classified as Extension Timed Walk Responders: 50.0%
[5]
  most effective concentration: about 10 μM
[6]
  Vd: 2.6 L/kg
[7]
  Cmax: 42.7 ng/mL
[8]
  concentrations causing gradual depolarization of the axon resting potential: above 1 mM
[8]; normal adult myelinated axons
  concentrations at which the action potential shows little or no sensitivity: below 100 μM
[9]
  time of peak plasma concentrations after dosing: ≤ 1 h
[10]
  Vdss lower in females than in males: 13%
